Reference: patent US20030119775A1, “Respiration uncoupling protein” (DUKE UNIVERSITY, priority 1997, published 2003)

Tests used:
UCP2 mRNA = UCP2 mRNA levels in mouse tissues after treatment; type: in vivo, Swiss mice
Source text: Regulation of UCP2 has been examined for factors that would regulate UCP1. In 11-week-old fed male Swiss mice, UCP2 mRNA was detected in BAT, WAT, thigh muscle and liver. […] Thus, UCP2 is regulated very differently than UCP1, which is induced by cold and β3 agonists.

[1] = system: mitochondria isolated from yeast; assay: Respiratory rates in mitochondria isolated from yeast; type: biochemical
Source text: Respiratory rates have been measured in mitochondria isolated from yeast containing the empty pYeDP vector and the pUCP2 vector (Table 1). […] Addition of ADP stimulates respiration more in control mitochondria, again showing the UCP2 mitochondria are more uncoupled.

[2] = system: UCP2 expression in Rat Basophilic Leukemia cell (RBL); assay: Northern blot of UCP2 expression in RBL cells; type: cell-based; set-up: dose or concentration left out as unconfirmed
Source text: (A) A tumor mast cell line, the Rat Basophilic Leukemia cell (RBL), is a model system for studies of immune system signal transduction. In the RBL cell, binding of an antigen to the IgE receptor on the cell surface results in the activation of phospholipase C-gamma (PLCg). This event leads to the activation of protein kinase C (PKC) and an increase in intracellular calcium which are required for degranulation and gene expression in RBL cells. Several drugs can mimic the intracellular events and degranulation occuring in this cell type in response to antigen activation of the IgE receptor. The inophore Ionomycin causes the release of calcium from intracellular calcium stores and the phorbol ester PMA is able to directly activate PKC. Both of these drugs are required to achieve maximal activation of RBL cells. In order to determine the expression level of UCP2 in RBL cells, these cells were treated with Ionomycin ([…]), PMA ([…]) or both drugs.

[3] = system: UCP2 mRNA in macrophage RAW cells; assay: UCP2 mRNA in cultured macrophage RAW cells, northern normalized for actin; type: cell-based, mouse; conditions: macrophages treated with LPS
Source text: (B) Bacterial lipopolysaccharide (LPS) regulates UCP2 mRNA in macrophages. Bacterial LPS is known to induce many of the features of infection, including fever. Thioglycolate elicited mouse macrophage (peritoneal exudate cells, PEC) have been studied for regulation of UCP2 mRNA by LPS. […] A study has also be made of UCP2 expression in cultured mouse macrophage RAW cells. These cells express UCP2. […] The LPS mediated decrease of UCP2 is not affected by indomethacin or by PGE2. All fo the macrophage northerns are normalized for actin expression and have been repeated at least once. […] The results are consistent with a role of UCP2 in immune function.

[4] = Roe et al, Metabolism 46:359 (1997); cited from earlier work
[5] = system: mitochondrial potential of transformed yeast; assay: Flow cytometry of mitochondrial membrane potential with DiOC6(3) in transformed yeast; type: cell-based, Saccharomyces cerevisiae
Source text: FIG. 2. Flow cytometry analysis of membrane potential following the expression of UCP2 in S. cerevisiae; comparison of wild-type UCP1 and non-active UCP1 mutants. The number of cells (counts, Y-axis) is represented on a logarithmic scale of 1024 channels. The X-axis is a logarithmic scale of fluorescence intensity. A shift of the curve towards the left indicates a decreased mitochondrial potential. The horizontal bar on the left indicates the position of cells treated with mCICCP, a chemical uncoupler. The expression of UCP2, UCP1 or UCPmut mRNA in recombinant yeast, as well as its absence in wild type yeast, was checked by Northern blots.
(§1) Yeast transfections and functional analysis using flow cytometry. The diploid yeast (Saccharomyces cerevisiae) strain W303 (a/α; ade2-10; his 3-11-15; leu2-2, 112; ura3-1; can1-100; try-Δ1) was used for expression of UCP2. The pYedP-UCP2 or UCPmut expression vectors were introduced into yeast by electroporation and transformants were selected for uracil […] as described by Bouillaud et al (EMBO J. 13:1990 (1994)). Expression of the UCP2, UCP1 or UCPmut under the control of the gal-cyc promoter was induced by galactose in the absence of glucose. Growth of yeast for flow cytometry analysis and measurement of mitochondrial membrane potential using the DiOC6(3) fluorescent probe (3,3′-dihexyloxacarbocyanine iodine, Molecular Probes, Eugene, Oreg.) are described by Bouillaud et al (EMBO J. 13:1990 (1994)).
The in vivo decrease of membrane potential associated with uncoupling of respiration was analyzed by flow cytometry of yeast labeled with the potential sensitive probe DiOC6(3) . […] In the case of UCP2, 2 peaks were observed, one equivalent to cells expressing UCP1 and a second peak corresponding to a very low mitochondrial potential. Mean fluorescence intensities were: empty vector, 65.5; UCPmut, 43.0; UCP1, 22.5; UCP2, 15.5 and UCP2+mCICCP, 0.4 (FIG. 2). Very similar results were obtained in two additional experiments.

[6] = system: yeast (Saccharomyces cerevisiae) strain W303; assay: Growth rate (instantaneous generation time) of transformed yeast after galactose induction; type: cell-based; conditions: liquid medium, galactose-induced expression; ±SD
Source text: as §1
To test the hypothesis that UCP2 is an uncoupling protein, yeast were transfected with UCP2 in an expression vector as previously reported for UCP1 (Bouillaud et al, EMBO J. 13:1990 (1994)). Rates of growth in liquid medium of transformed yeast were measured in the presence of galactose, which induces expression. Instantaneous generation times were compared after induction of vector, UCP2, control (empty) and UCP1 expression vectors. […]

[7] = yeast carrying the expression vector, lower = decreased mitochondrial potential

## C[C@H](Cc1ccc2c(c1)OC(C(=O)[O-])(C(=O)[O-])O2)NC[C@H](O)c1cccc(Cl)c1.[Na+].[Na+] [CL316,243]
UCP2 mRNA; 11-week-old fed male Swiss mice, BAT, WAT, thigh muscle and liver, treatment for 10 days
  Effect on UCP2 mRNA levels: did not influence UCP2 mRNA levels

## N#CC(C#N)=NNc1ccc(OC(F)(F)F)cc1 [FCCP]
[1]; control (pYeDP) mitochondria
  Respiratory rate increase factor upon addition of uncoupler: 7.1
[1]; pUCP2 mitochondria
  Respiratory rate increase factor upon addition of uncoupler: 4.3

## C[C@H](CCC(=O)O)C[C@H](C)C[C@H](C)C(=O)/C=C(\O)[C@H](C)C[C@H](C)C/C=C/[C@@H](C)[C@@H](O)[C@@H](C)[C@@H](O)C[C@@H]1CC[C@@](C)([C@H]2CC[C@@](C)([C@@H](C)O)O2)O1 [Ionomycin]
[2]
  Induction of UCP2 expression versus untreated control cells: ~4 fold

## CCCCC[C@H](O)/C=C/[C@H]1[C@H](O)CC(=O)[C@@H]1C/C=C\CCCC(=O)O [PGE2]
[3]
  Effect on the LPS mediated decrease of UCP2: not affected

## CCCCCCCCCCCCCC(=O)O[C@@H]1[C@@H](C)[C@@]2(O)[C@@H](C=C(CO)C[C@]3(O)C(=O)C(C)=C[C@@H]23)[C@@H]2C(C)(C)[C@]12OC(C)=O [PMA]
[2]
  Induction of UCP2 expression versus untreated control cells: ~4 fold

## COc1ccc2c(c1)c(CC(=O)O)c(C)n2C(=O)c1ccc(Cl)cc1 [indomethacin]
[3]
  Effect on the LPS mediated decrease of UCP2: not affected
[4]
  Effect on increased O2 consumption associated with cachexia of malignancy: attenuated

## N#CC(C#N)=NNc1cccc(Cl)c1 [mCICCP]
[5]; UCP2-expressing yeast treated with mCICCP
  Mean fluorescence intensity (DiOC6(3)): 0.4

## leptin: leptin, shown to increase sympathetic outflow to brown fat
UCP2 mRNA; 2 μg, 2×/day for 4 days
  Effect on UCP2 expression: failed to increased UCP2 expression
UCP2 mRNA; general statement: in vitro or in vivo
  Influence on UCP2 expression: not to influence UCP2 expression

B1: UCP2: uncoupling protein-2, expressed in yeast from the pYedP-UCP2 expression vector (protein, UniProt P55851 1-309, looked up)
Dicarboxylate carrier SLC25A8: MVGFKATDVPPTATVKFLGAGTAACIADLITFPLDTAKVRLQIQGESQGPVRATASAQYRGVMGTILTMVRTEGPRSLYNGLVAGLQRQMSFASVRIGLYDSVKQFYTKGSEHASIGSRLLAGSTTGALAVAVAQPTDVVKVRFQAQARAGGGRRYQSTVNAYKTIAREEGFRGLWKGTSPNVARNAIVNCAELVTYDLIKDALLKANLMTDDLPCHFTSAFGAGFCTTVIASPVDVVKTRYMNSALGQYSSAGHCALTMLQKEGPRAFYKGFMPSFLRLGSWNVVMFVTYEQLKRALMAACTSREAPF
[6]
  Instantaneous generation time: 260 ± 29 min
[5]; [7]
  Mean fluorescence intensity (DiOC6(3)): 15.5

B2: UCP1: uncoupling protein-1 of brown adipose tissue, expressed in yeast for comparison (protein, UniProt P25874 1-307, looked up)
Mitochondrial brown fat …: MGGLTASDVHPTLGVQLFSAGIAACLADVITFPLDTAKVRLQVQGECPTSSVIRYKGVLGTITAVVKTEGRMKLYSGLPAGLQRQISSASLRIGLYDTVQEFLTAGKETAPSLGSKILAGLTTGGVAVFIGQPTEVVKVRLQAQSHLHGIKPRYTGTYNAYRIIATTEGLTGLWKGTTPNLMRSVIINCTELVTYDLMKEAFVKNNILADDVPCHLVSALIAGFCATAMSSPVDVVKTRFINSPPGQYKSVPNCAMKVFTNEGPTAFFKGLVPSFLRLGSWNVIMFVCFEQLKRELSKSRQTMDCAT
[6]
  Instantaneous generation time: 226 ± 10 min
[5]; [7]
  Mean fluorescence intensity (DiOC6(3)): 22.5
